In US10092566B2, “Composition for controlling a gut immunity and use thereof” (SEOUL NATIONAL UNIVERSITY R&DB FOUNDATION, priority 2013, dated 2018):
Entries after “also recorded” stand apart in the source; their conditions may differ.

How the values were obtained:
[1] = test system: IMD pathway; assay: Gut IMD pathway activation (Cec expression, qPCR); assay type: in vivo, Drosophila; details: uracil 20 nM, 4 hours
Protocol: Fluorescent RT-PCR was conducted to quantify gene expression and double-stranded DNA dye and SYBR green (Perkin Elmer, Waltham, Mass., USA) were used. To detect target gene trascriptomes, Cecropin (Sense, 5′-ATGAACTTCTACAACATCTTCG-3′ (SEQ ID NO: 5); Antisense, 5′-GGCAGTTGCGGCGACATTGGCG-3′ (SEQ ID NO: 6)), Diptericin (Sense, 5′-GGCTTATCCGATGCCCGACG-3′ (SEQ ID NO: 7); Antisense, 5′-TCTGTAGGTGTAGGTGCTTCCC-3′ (SEQ ID NO: 8)), and DUOX (Sense, 5′-GCTGCACGCCAACCACAAGAGACT-3′ (SEQ ID NO: 9); Antisense, 5′-CACGCGCAGCAGGATGTAAGGTTT-3′ (SEQ ID NO: 10)) were used, and as a control group, Rp49 (Sense, 5′-AGATCGTGAAGAAGCGCACCAAG-3′ (SEQ ID NO: 11); Antisense, 5′-CACCAGGAACTTCTTGAATCCGG-3′ (SEQ ID NO: 12)) was used. SYBR green analysis was conducted by an ABI PRISM 7700 system (PE Applied Biosystems, Foster City, Calif., USA) according to the manufacturer's instructions. All of the samples were repeated three times and analyzed, and a detected amount of mRNA was normalized with mRNA in the control group. Normalized data was used to quantify the relative amount of mRNA according to cycling threshold analysis. Targeted gene expression was expressed as the relative amount of expression.

[2] = test system: germ-free Drosophila; assay: Survival duration of germ-free flies on uracil-containing media; assay type: in vivo
Source text: Control Drosophila and PLCβ-DUOX pathway-mediated mutated Drosophila (PLCβ^−/− and DUOX-RNAi) were used in the experiment. It is known that PLCβ^−/− and DUOX-RNAi flies have a short life span under conventional rearing conditions but a normal life span under germ-free conditions (Ha et al., Nat Immunol 10, pp. 949-957, 2009). Therefore, to examine the effects of uracil on the survival rate of genetically different Drosophila, germ-free animals were used. Germ-free animals were reared in germ-free media containing 1 nM of uracil. Germ-free animals were moved to a newly sterilized bottle that had germ-free media containing uracil every 4 or 5 days. Drosophila remained germ-free throughout the entire experimental processes.

[3] = test system: Drosophila S2 cells; assay: Measurement of intracellular calcium (fura-2); assay type: cell-based; details: uracil 20 nM
Protocol: Intracellular Ca^2+ was measured by the method disclosed in the previous research (Rosker et al., J Biol Chem 279, pp. 13696-13704, 2004). Briefly speaking, Drosophila S2 cells (approx. 10^8 cells) were loaded with pH 7.4 buffer containing 10 mM glucose, 140 mM NaCl, 1 mM CaCl2, 5 mM KCl, 1 mM MgCl2, and 10 mM HEPES and the solution was treated with […] fura-2-acetoxymethyl ester for 40 minutes at room temperature. The cells were washed twice with pH 7.4 Ca^2+ chelating buffer containing 10 mM glucose, 140 mM NaCl, 1 mM EDTA, 1 mM EGTA, 5 mM KCl, 1 mM MgCl2, and 10 mM HEPES, and were re-suspended in the same buffer. Then, 20 nM of uracil was added to the cells. Fluorescence was continuously recorded at an interval of 0.5 seconds (excitation at 340 nm and 380 nm; emission at 510 nm) by fluorescent spectrophotometer (Shimadzu, Tokyo, Japan) at room temperature.

[4] = test system: p38; assay: p38 activation by phospho-p38 immune staining of midgut; assay type: in vivo, Drosophila; details: uracil 20 nM for 2 hours
Protocol: To examine uracil-induced p38 activation, a 5% sucrose solution containing 20 nM of uracil was orally administered to genetically different adult Drosophila (5 to 6 days old) for 2 hours. Midguts were dissected in PBS and fixed with 4% paraformaldehyde for 15 minutes. The midguts were washed three times with PBS containing 0.1% of Triton X-100 for 5 minutes and were cultured in the above solution with additional 5% cow blood serum albumin for 1 hour. Next, the sample was cultured with additional phospho-specific anti-p38 antibody (1:500 dilution; Millipore, Milford, Mass., USA) at 4° C. for 16 hours. The sample was washed five times with PBS containing 0.1% Triton X-100 for 5 minutes and cultured at room temperature for 20 minutes after adding secondary antibodies (1:500 dilution; Alexa Fluor 568 goat anti-rabbit IgG; Invitrogen, Carlsbad, Calif., USA). After washing the sample three times with PBS containing 0.1% Triton X-100 for 5 minutes, the sample was mounted with mounting buffer solution (Vectorshield, Vector Laboratories Inc., Burlingame, Calif., USA) and was analyzed by LSM 700 confocal microscopy (Carl Zeiss, Oberkochen, Germany)

[5] = test system: DUOX; assay: In vivo ROS detection in gut epithelia (HOCl-specific R19S staining, ratio of ROS-positive guts); parameters: species or system Drosophila
Source text: R19S, a recently developed HOCl-specific rhodamine-based dye, was used in this experiment (Chen et al., Chem Commun (Camb) 47, pp. 4373-4375, 2011). R19S was purchased from Futurechem (Seoul, South Korea). […]
Furthermore, to measure the basal level of ROS in germ-free animals, Drosophila monoassociated with each bacterium (C. intestini, A. pomorum, L. plantarum, G. morbifer, G. morbifer-carA::Tn5, L. brevis, or L. brevisΔcarA) were experimented with as disclosed above. A 5% sucrose solution containing 10 μM of R19S was orally administered to the monoassociated Drosophila (13 days old) for 90 minutes.
Following the R19S ingestion, the midguts were dissected and fixed with 4% formaldehyde. The level of HOCl (ROS level) was visualized by LSM700 confocal microscopy (Carl Zeiss).
For all of the experiments, R19S-positive guts in each animal group (n=approx. 20) were measured by each independent experiment, and data was indicated by at least three repeated and independent experiments. The number of R19S-positive guts in regard to the total numbers of gut samples was indicated as the ratio of ROS-positive guts.

O=c1cc[nH]c(=O)[nH]1 [uracil]
gut IMD pathway activation leading to AMP production [1]: unable to activate the gut IMD pathway
host lethality / mortality after long-term ingestion of uracil ([2]; germ-free control flies, uracil-containing vs normal food): lethality of control flies in a dose-dependent manner; also recorded: statistically significant difference in mortality
uracil-induced host pathology in PLCβ−/− or DUOX-RNAi flies ([2]; in vivo): completely absent
Ca2+ mobilization [3]: Ca^2+ mobilization
p38 MAPK activation [4]: p38 MAPK activation
infection-induced gut ROS after coingestion of uracil with URA− strain ([5]; E. carotovora-pyrE::Tn5 plus uracil): normal level of infection-induced ROS
lowest concentration inducing gut ROS generation ([5]; dose-dependent analysis, oral ingestion, adult Drosophila): ≥ 10 pM
ROS-inducing ability / DUOX activation ([5]; nucleobases and pyrimidine analogs, 20 nM each, ingestion for 15 minutes): capable of activating DUOX
gut ROS generation ([5]; uracil 20 nM for 1.5 hours, PLCβ-DUOX signaling-dependent (absent in DUOX-RNAi, PLCβ−/−)): generation of large amounts of gut ROS
requirement of Gαq for uracil-induced ROS generation ([5]; uracil 20 nM for 1.5 hours, control vs Gαq−/− flies): required
uracil-induced ROS generation in presence of commensal bacteria in the gut ([5]; uracil 20 nM, 1.5 hours, GF flies monoassociated with C. intestini, A. pomorum or L. plantarum): could not inhibit the ROS-generating ability of uracil
